PubChem BioAssay AID256 (DTP/NCI, 2004)
Values joined by “and” are separate entries in the source; they are usually repeats but may differ in a detail not shown here. Equal values may be shown once. Inconclusive results and toxic doses are left out. How the source made its calls: active means survival T/C of 150% or more; inactive means T/C below 125% in these data.

System: CD2F1 mice, L1210 leukemia ip, survival T/C
Experiment: NCI In Vivo Anticancer Drug Screen. Data for tumor model L1210 Leukemia (intraperitoneal) in CD2F1 (CDF1) mice
Settings: higher = longer survival
Procedure, shortened: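 Ratio T/C, where T is the treated-group value and C the vehicle-dosed control value, from mice implanted with a transplantable tumor.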

[1] = endpoint: mean survival time, dose: 25.0 mg/kg/injection, schedule: Q01DX009 (ip), vehicle: saline with Tween-80
[2] = endpoint: mean survival time, dose: 50.0 mg/kg/injection, schedule: Q01DX009 (ip), vehicle: saline with Tween-80
[3] = endpoint: mean survival time, dose: 100.0 mg/kg/injection, schedule: Q01DX009 (ip), vehicle: saline with Tween-80
[4] = endpoint: mean survival time, dose: 100.0 mg/kg/injection, schedule: Q04DX003 (ip), vehicle: saline with Tween-80
[5] = endpoint: mean survival time, dose: 50.0 mg/kg/injection, schedule: Q01DX009 (ip), vehicle: saline
[6] = endpoint: mean survival time, dose: 100.0 mg/kg/injection, schedule: Q01DX009 (ip), vehicle: saline
[7] = endpoint: mean survival time, dose: 200.0 mg/kg/injection, schedule: Q04DX003 (ip), vehicle: saline with Tween-80
[8] = endpoint: mean survival time, dose: 400.0 mg/kg/injection, schedule: Q04DX003 (ip), vehicle: saline with Tween-80
[9] = endpoint: mean survival time, dose: 25.0 mg/kg/injection, schedule: Q01DX009 (ip), vehicle: saline
[10] = endpoint: mean survival time, dose: 100.0 mg/kg/injection, schedule: Q01DX001 (ip), vehicle: saline
[11] = endpoint: mean survival time, dose: 200.0 mg/kg/injection, schedule: Q01DX001 (ip), vehicle: saline

Measured: T/C

CCOC1=C(C#N)CC2(CC1)c1ccccc1-c1ccccc12
inactive: endpoint: mean survival time, dose: 100.0 mg/kg/injection, schedule: Q04DX003 (ip), vehicle: Klucel (hydroxypropylcellulose) (HPC) 96 % of control | endpoint: mean survival time, dose: 200.0 mg/kg/injection, schedule: Q04DX003 (ip), vehicle: Klucel (hydroxypropylcellulose) (HPC) 102 % of control | endpoint: mean survival time, dose: 400.0 mg/kg/injection, schedule: Q04DX003 (ip), vehicle: Klucel (hydroxypropylcellulose) (HPC) 101 % of control

CN=Cc1ccc(OC)cc1
inactive: [1] 116 % of control | [2] 96 % of control | [3] 102 % of control | [4] 94 % of control

O=C1OC(O)C(Cl)=C1Cl (configuration not stated)
inactive: endpoint: mean survival time, dose: 100.0 mg/kg/injection, schedule: Q04DX002 (ip), vehicle: Klucel (hydroxypropylcellulose) (HPC) 103 % of control | endpoint: mean survival time, dose: 200.0 mg/kg/injection, schedule: Q04DX002 (ip), vehicle: Klucel (hydroxypropylcellulose) (HPC) 91 % of control | endpoint: mean survival time, dose: 400.0 mg/kg/injection, schedule: Q04DX002 (ip), vehicle: Klucel (hydroxypropylcellulose) (HPC) 97 % of control

O=C1CCCN1
inactive: [5] 91 % of control | [6] 98 % of control | endpoint: mean survival time, dose: 200.0 mg/kg/injection, schedule: Q01DX009 (ip), vehicle: saline 89 % of control

CCC(=O)c1cc([N+](=O)[O-])ccc1NC(C)=O
inactive: [4] 100 % of control | [7] 94 % of control | [8] 88 % of control

C1CCC2C(C1)NC1CCCCC12 (configuration not stated)
inactive: [9] 89 % of control | [5] 89 % of control

CC12CCCC(CCCO)(C1)NC(=O)C2 (configuration not stated)
inactive: [10] 101 % of control | [11] 101 % of control | endpoint: mean survival time, dose: 400.0 mg/kg/injection, schedule: Q01DX001 (ip), vehicle: saline 101 % of control

O=C(NCCO)c1cccnc1
inactive: endpoint: mean survival time, dose: 75.0 mg/kg/injection, schedule: Q04DX003 (ip), vehicle: saline sonified 103 % of control | endpoint: mean survival time, dose: 150.0 mg/kg/injection, schedule: Q04DX003 (ip), vehicle: saline sonified 97 % of control | endpoint: mean survival time, dose: 300.0 mg/kg/injection, schedule: Q04DX003 (ip), vehicle: saline sonified 97 % of control | endpoint: mean survival time, dose: 600.0 mg/kg/injection, schedule: Q04DX003 (ip), vehicle: saline sonified 102 % of control

C[n+]1ccccc1NC(=O)c1ccccc1
inactive: [4] 98 % of control | [7] 95 % of control | [8] 88 % of control

NC(=O)c1c[nH]n(C2OC(CO)C(O)C2O)c1=O (configuration not stated)
inactive: endpoint: median survival time, dose: 49.9 mg/kg/injection, schedule: Q01DX005 (ip), vehicle: saline 100 % of control | endpoint: median survival time, dose: 99.8 mg/kg/injection, schedule: Q01DX005 (ip), vehicle: saline 94 % of control | endpoint: median survival time, dose: 199.6 mg/kg/injection, schedule: Q01DX005 (ip), vehicle: saline 94 % of control

CC1(C)N=C(N)N=C(N)N1c1ccc(OCCOc2ccc(S(=O)(=O)F)cc2)c(Cl)c1
inactive: endpoint: mean survival time, dose: 25.0 mg/kg/injection, schedule: Q04DX003 (ip), vehicle: saline with Tween-80 114 % of control | [4] 120 % of control

COc1ccc(CC#N)cc1OC
inactive: endpoint: mean survival time, dose: 3.75 mg/kg/injection, schedule: Q01DX009 (ip), vehicle: saline with Tween-80 95 % of control | endpoint: mean survival time, dose: 3.75 mg/kg/injection, schedule: Q04DX003 (ip), vehicle: saline with Tween-80 107 % of control | endpoint: mean survival time, dose: 7.5 mg/kg/injection, schedule: Q01DX009 (ip), vehicle: saline with Tween-80 95 % of control | endpoint: mean survival time, dose: 7.5 mg/kg/injection, schedule: Q04DX003 (ip), vehicle: saline with Tween-80 103 % of control | endpoint: mean survival time, dose: 15.0 mg/kg/injection, schedule: Q01DX009 (ip), vehicle: saline with Tween-80 95 % of control | endpoint: mean survival time, dose: 15.0 mg/kg/injection, schedule: Q04DX003 (ip), vehicle: saline with Tween-80 103 % of control

CCCCCCCCCCCCCC(CCCC)CCCCCCCC (configuration not stated)
inactive: endpoint: mean survival time, dose: 100.0 mg/kg/injection, schedule: Q01DX001 (ip), vehicle: saline sonified 107 % of control | endpoint: mean survival time, dose: 200.0 mg/kg/injection, schedule: Q01DX001 (ip), vehicle: saline sonified 95 % of control | endpoint: mean survival time, dose: 400.0 mg/kg/injection, schedule: Q01DX001 (ip), vehicle: saline sonified 102 % of control

CC(=O)OC1C(C)OC(n2ncc(=O)[nH]c2=O)C(OC(C)=O)C1OC(C)=O (configuration not stated)
inactive: endpoint: mean survival time, dose: 12.5 mg/kg/injection, schedule: Q01DX005 (ip), vehicle: distilled water + Tween-80 103 % of control | endpoint: mean survival time, dose: 25.0 mg/kg/injection, schedule: Q01DX005 (ip), vehicle: distilled water + Tween-80 100 % of control | endpoint: mean survival time, dose: 50.0 mg/kg/injection, schedule: Q01DX005 (ip), vehicle: distilled water + Tween-80 103 % of control | endpoint: mean survival time, dose: 100.0 mg/kg/injection, schedule: Q01DX005 (ip), vehicle: distilled water + Tween-80 103 % of control | endpoint: mean survival time, dose: 200.0 mg/kg/injection, schedule: Q01DX005 (ip), vehicle: distilled water + Tween-80 107 % of control

CC1(c2ccccc2)OCCO1
inactive: endpoint: mean survival time, dose: 100.0 mg/kg/injection, schedule: Q01DX001 (ip), vehicle: saline with Tween-80 97 % of control | [3] 95 % of control | [4] 100 % of control | endpoint: mean survival time, dose: 200.0 mg/kg/injection, schedule: Q01DX001 (ip), vehicle: saline with Tween-80 94 % of control | endpoint: mean survival time, dose: 200.0 mg/kg/injection, schedule: Q01DX009 (ip), vehicle: saline with Tween-80 93 % of control | [7] 100 % of control | endpoint: mean survival time, dose: 400.0 mg/kg/injection, schedule: Q01DX001 (ip), vehicle: saline with Tween-80 97 % of control | endpoint: mean survival time, dose: 400.0 mg/kg/injection, schedule: Q01DX009 (ip), vehicle: saline with Tween-80 97 % of control | [8] 97 % of control

CN(C)CCC(=O)c1ccccc1
inactive: [9] 106 % of control | [5] 95 % of control | [6] 106 % of control

O=c1[nH]c(=O)c2ccccc2o1
inactive: endpoint: mean survival time, dose: 12.5 mg/kg/injection, schedule: Q01DX009 (ip), vehicle: saline with Tween-80 101 % of control | [1] 101 % of control | [2] 98 % of control

CC(=O)Nc1nnc(-c2ccc([N+](=O)[O-])o2)s1
inactive: endpoint: mean survival time, dose: 75.0 mg/kg/injection, schedule: Q04DX003 (ip), vehicle: saline 97 % of control | endpoint: mean survival time, dose: 150.0 mg/kg/injection, schedule: Q04DX003 (ip), vehicle: saline 100 % of control | endpoint: mean survival time, dose: 300.0 mg/kg/injection, schedule: Q04DX003 (ip), vehicle: saline 97 % of control

C[C@@H]1CC[C@]2(C)CC[C@]3(C)C(=CC[C@@H]4[C@@]5(C)CC[C@@H](OC(=O)c6ccc(O)cc6)C(C)(C)[C@@H]5C[C@H](O)[C@]43C)[C@@H]2[C@H]1C(=O)O
inactive: endpoint: median survival time, dose: 0.06 mg/kg/injection, schedule: Q01DX009 (ip), vehicle: saline with Tween-80 103 % of control | endpoint: median survival time, dose: 0.12 mg/kg/injection, schedule: Q01DX009 (ip), vehicle: saline with Tween-80 111 % of control | endpoint: median survival time, dose: 0.25 mg/kg/injection, schedule: Q01DX009 (ip), vehicle: saline with Tween-80 114 % of control | endpoint: median survival time, dose: 0.5 mg/kg/injection, schedule: Q01DX009 (ip), vehicle: saline with Tween-80 123 % of control | endpoint: median survival time, dose: 1.0 mg/kg/injection, schedule: Q01DX009 (ip), vehicle: saline with Tween-80 107 % of control

CC1(O)CCC(C)(O)CC1 (configuration not stated)
inactive: endpoint: mean survival time, dose: 25.0 mg/kg/injection, schedule: Q04DX002 (ip), vehicle: saline with Tween-80 107 % of control and 103 % of control | endpoint: mean survival time, dose: 50.0 mg/kg/injection, schedule: Q04DX002 (ip), vehicle: saline with Tween-80 95 % of control and 98 % of control | endpoint: mean survival time, dose: 100.0 mg/kg/injection, schedule: Q04DX002 (ip), vehicle: saline with Tween-80 107 % of control and 98 % of control | endpoint: mean survival time, dose: 200.0 mg/kg/injection, schedule: Q04DX002 (ip), vehicle: saline with Tween-80 103 % of control

CCOC(=O)C1=C(C)NC(=O)NN1C(=O)OCC
inactive: endpoint: mean survival time, dose: 12.5 mg/kg/injection, schedule: Q01DX009 (ip), vehicle: saline 94 % of control | [9] 87 % of control | [5] 94 % of control

Oc1ccccc1Br
inactive: [10] 96 % of control | [11] 93 % of control

CCCCC1CCC(NC(=O)Nc2ccccc2)CC1 (configuration not stated)
inactive: [4] 113 % of control | [7] 109 % of control | [8] 105 % of control
